Data set [1] relates to antitumor activity. Briefly: Antitumor activity of clavam 1 in vivo.
A further data set has as its system antifungal activity. As to conditions: reported by Brown and Evans; cited from earlier work.
A further data set in a line: Chemical stability. It is filed as physicochemical.
Data set [2] concerns antitumor activity. The data set can be described thus: Antitumor activity of clavam 1 in vitro. It is filed as cell-based.
The next data set has as its system P388 (R) cells. Briefly: In vitro P388 cell cytotoxicity (microculture tetrazolium assay), resistant line. It is filed as cell-based. As to conditions: Mus musculus, read-out: Cell Toxicity P388 (R) (TD50). Here is the method: (§1) In Vitro L1210 and P388 Cell Cytotoxicity Assay
(§2) Cells were counted using neubauer hemocytometer and seed in 96 well plates at 100 μl of 0.5×10^4 cells per ml. […] Control wells were identical except that the test compound was absent. These were cultured for three days. Results were assayed using the microculture tetrazolium assay briefly. 50 μl of MTT formazoan working solution (1:5 v/v in culture medium) was added to each well and cultures were incubated at 37° C. for 4 hrs. Culture plates were centrifuged at low speed for 5 minutes. All but 10-20 μl of culture medium supernatant was removed by slow aspiration and […] and read at OD540 on a multiscan spectrophotometer. Inhibition value of cell growth was calculated based on optical density using the following equation; [formula]
(§3) TD50 values were calculated from linear regression ines of the log-logit plot.

In another data set the test system is P388 (S) cells. The data set can be described thus: In vitro P388 cell cytotoxicity (microculture tetrazolium assay), sensitive line. As to conditions: Mus musculus, 72 h, read-out: Cell Toxicity P388 (S) (TD50). It is filed as cell-based. Here is the method:
as §1, §2, §3

The test system of the next data set is L-1210 (S) cells. The data set can be described thus: In vitro L1210 cell cytotoxicity (microculture tetrazolium assay), sensitive line. The note with it: Mus musculus, L1210, 72 h, read-out: Cell Toxicity L-1210 (S) (TD50). It is filed as cell-based. Here is the method:
as §1, §2, §3

In the next data set the test system is L-1210 (R) cells. Briefly: In vitro L1210 cell cytotoxicity (microculture tetrazolium assay), resistant line. It is filed as cell-based. As to conditions: Mus musculus, L1210, 72 h, read-out: Cell Toxicity L-1210 (R) (TD50). The protocol:
as §1, §2, §3

The subject of a further data set is KB cells. The data set can be described thus: In vitro KB cell cytotoxicity assay (crystal violet). It is filed as cell-based. As to conditions: Homo sapiens, 72 h, 3 days culture, read-out: KB Cell Cytotoxicity TD50. The gist of the method:
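Cells seeded at 3×10^4 cells/ml in Eagle's MEM with 10% calf serum, cultured one day, then exposed to compound for three days at 37° C, 5% CO2. Glutaraldehyde-fixed cells stained with 0.05% crystal violet, eluted and read at OD540; TD50 from linear regression of log-logit plot of growth inhibition.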

Another data set has as its system Sarcoma 180. The data set can be described thus: In vivo antitumor activity against Sarcoma 180. Further details: species or system male ICR mice. As to conditions: i.p., days 1, 5 and 9. The essentials: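 Male ICR mice (6 weeks) inoculated s.c. with 5×10^6 Sarcoma 180 cells on day 0, dosed on days 1, 5 and 9 (6–7 per group). Tumours weighed on day 12; % inhibition from mean tumour weight of treated versus control group.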

Where [3] appears, read: 72 h, P388 resistant, 3 days culture.
[4] abbreviates: L-1210 sensitive, 3 days culture.
Setting [5] is: L-1210 resistant, 3 days culture.

Values after ≈ are worked out from the molar mass of the structure shown. Read-outs that look alike come from different tables or passages of the source.

Consider `O=C1C[C@@H]2O[C@@H](CO)CN12` [clavam 1, (3R,5S)-3-hydroxymethyl-4-oxa-1-azabicyclo[3.2.0]heptan-7-one], for which the “antitumor activity in vivo” value with antitumor activity [1] is “excellent antitumor activity”. Further, the antifungal activity result in the data set with antifungal activity is on record as “exhibit antifungal activity”. The chemical stability result in the data set “Chemical stability” is on record as “chemically unstable”. The “antitumor activity in vitro” value with antitumor activity [2] is on record as “excellent antitumor activity”.
Take `CC(C)C(N)C(=O)NC(C(=O)O)C(O)C1CN2C(=O)CC2O1` (centres unmarked) [Example G0069A]: the IC50 in the data set with P388 (R) cells (setting [3]) worked out at 0.751 µg/mL (≈ 2.38 µM); in the data set on P388 (S) cells (P388 sensitive, 3 days culture), 1.02 µg/mL (≈ 3.23 µM); in the data set with L-1210 (S) cells (setting [4]) it was 2.17 µg/mL (≈ 6.88 µM); in the data set with L-1210 (R) cells (setting [5]) it was 1.87 µg/mL (≈ 5.93 µM).
As to `COc1cccc2c1C(=O)c1c(O)c3c(c(O)c1C2=O)C[C@@](O)(C(=O)CO)C[C@@H]3O[C@H]1C[C@H](N)[C@H](O)[C@H](C)O1` [Adriamycin], the IC50 in the data set with P388 (R) cells (P388, 72 h) worked out at 0.575 µg/mL (≈ 1.06 µM); in the data set with P388 (S) cells it was 0.003 µg/mL (≈ 0.00552 µM); in the data set with L-1210 (S) cells, 0.004 µg/mL (≈ 0.00736 µM); in the data set with L-1210 (R) cells, 0.36 µg/mL (≈ 0.662 µM).
For `CC[C@]1(O)C[C@H]2CN(CCc3c([nH]c4ccccc34)[C@@](C(=O)OC)(c3cc4c(cc3OC)N(C=O)[C@H]3[C@@](O)(C(=O)OC)[C@H](OC(C)=O)[C@]5(CC)C=CCN6CC[C@]43[C@@H]65)C2)C1` [Vincristine], the IC50 worked out at 0.279 µg/mL (≈ 0.338 µM) in the data set on P388 (R) cells (P388, 72 h); 0.002 µg/mL (≈ 0.00242 µM) with L-1210 (S) cells; 0.2 µg/mL (≈ 0.242 µM) with L-1210 (R) cells.
For the compound `CC(=O)NC[C@@H]1CN2C(=O)C[C@H]2O1` (racemic) [Example 1, (3RS,5RS)-3-(N-Acetylaminomethyl)-4-oxa-1-azabicyclo[3.2.0]heptan-7-one], the IC50 is 0.074 µg/mL (≈ 0.402 µM) in the data set with P388 (R) cells (setting [3]); 0.263 µg/mL (≈ 1.43 µM) in the data set with KB cells; 0.103 µg/mL (≈ 0.559 µM) in the data set with P388 (S) cells (P388 sensitive, 3 days culture); 0.103 µg/mL (≈ 0.559 µM) in the data set on L-1210 (S) cells (setting [4]); 0.104 µg/mL (≈ 0.565 µM) with L-1210 (R) cells (setting [5]). Further, the “Mortality in 12 days” value in the data set with Sarcoma 180 (3.1 mg/kg/day), in the data set on Sarcoma 180 (6.25 mg/kg/day) and with Sarcoma 180 (12.5 mg/kg/day) was 0/6 each time. Moreover, the inhibition in vivo at 3.1 mg/kg with Sarcoma 180 (Mus musculus, Sarcoma-180, ip, 288 h, 3.1 mg/kg/day, tumor s.c., tumor weight day 12, read-out: % Inhibition of tumor growth) stood at 33.9%. Besides, the inhibition in vivo at 6.25 mg/kg with Sarcoma 180 (Mus musculus, Sarcoma-180, ip, 288 h, 6.25 mg/kg/day, tumor s.c., tumor weight day 12, read-out: % Inhibition of tumor growth) is 49.3%. For the same compound, the inhibition in vivo at 12.5 mg/kg in the data set on Sarcoma 180 (Mus musculus, Sarcoma-180, ip, 288 h, 12.5 mg/kg/day, tumor s.c., tumor weight day 12, read-out: % Inhibition of tumor growth) is 71.4%.
